One assay concerns MM.1S cells. Briefly: Cell cycle distribution by flow cytometry. The format is cell-based, human. The following applies: 5 to 10 µM for 48 h. The protocol:
(§1) MM cells were synchronized to G1/S boundary by a double-thymidine block. Briefly, cells were treated with 2 mM thymidine (Sigma-Aldrich) for 16 h, released into fresh medium for 9 h and subjected again to thymidine for another 16 h and then exposed to 6-OAP for indicated time points. Cells were harvested, fixed with 70% cold ethanol, incubated with RNase, and stained with propidium iodide (PI) (Sigma-Aldrich). Cell cycle distribution was analyzed by flow cytometry and CellQuest software (Becton Dickson).
(§2) Figure 2 6-OAP induces mitotic arrest in MM cells. (A) U266 cells were treated with 6-OAP at 7.5 µM for 0, 24, 48 h and imaged by Leica DMI 400B microscope. (B) U266 cells were treated with 6-OAP at indicated concentrations for 48 h. Cell cycle distribution was determined by flow cytometry. (C) MM.1S cells were treated with 5 µM 6-OAP for 48 h. Cell cycle distribution was determined by flow cytometry. (D) U266 cells were treated with 6-OAP at 5 to 7.5 µM for 24 h (left panel) or at 7.5 µM for 12 to 24 h (right panel). For immunofluorescence analysis of microtubules, cells was stained with an anti-α-tubulin antibody to visualize microtubules (green) and DAPI to counter stained DNA (blue) and observed by confocal microscopy. (E) Indicated cells were treated with 6-OAP at indicated concentration for 24 h, lysed, and Western blotting was performed using antibodies indicated. […]
In general terms: A flow cytometer gives signals particle by particle.

Another assay relates to U266 cells. Briefly: Cell cycle distribution by flow cytometry. Conditions: 5 to 10 µM for 48 h. The class given is cell-based, human. On the procedure: as §1, §2

As for `CC=C(C)C(=O)OC1C2C(CC(C)C3C=CC(=O)C31C)OC(=O)C2C` (centres unmarked) [6-OAP, 6-O-angeloylplenolin], the “cells in G2/M phase” value with MM.1S cells and in the assay on U266 cells was “accumulation” in each case.

The values are drawn from publication PMC3130785, “Small Compound 6-O-Angeloylplenolin Induces Mitotic Arrest and Exhibits Therapeutic Potentials in Multiple Myeloma” (PLoS ONE, 2011).
